According to US10112941B2, “Tricyclic compounds as anticancer agents” (BRISTOL-MYERS SQUIBB COMPANY, priority 2013, dated 2018):
pIC50: −log10 of the molar value.

Molecular target: BRD4 (Homo sapiens, UniProt O60885)
Assay: Time Resolved Fluorescence Resonance Energy Transfer (TR-FRET) binding assay, BRD4
Settings: FRET BRD4 IC50 (nM), one of the FRET assays described

| SMILES | IC50 [nM] |
| --- | --- |
| Cn1nnc(Br)c1-c1cnc2c3ccc(C(C)(C)O)cc3n([C@H](c3ccccc3)C3CCOCC3)c2c1 [Example 384, 2-[3-(4-Bromo-1-methyl-1H-1,2,3-triazol-5-yl)-5-[(S)-oxan-4-yl(phenyl)methyl]-5H-pyrido[3,2-b]indol-7-yl]propan-2-ol] | < 5 |
| [2H]C([2H])([2H])c1onc(C)c1-c1cnc2c3ccc(C(C)(C)O)cc3n([C@H](c3ccc(F)cc3)C3CCOCC3)c2c1 [Example 284, 2-{5-[(S)-(4-Fluorophenyl)(oxan-4-yl)methyl]-3-[5-(^2H3)methyl-3-methyl-1,2-oxazol-4-yl]-5H-pyrido[3,2-b]indol-7-yl}propan-2-ol] | < 5 |

Same assay, conditions: one of the FRET assays described; read-out: FRET BRD4 IC50

| SMILES | pIC50 |
| --- | --- |
| [2H]C([2H])([2H])c1nnn(C)c1-c1cnc2c3c(S(C)(=O)=O)cc(OC)c(OC)c3n([C@H](c3ccccc3)C3CCOCC3)c2c1 [Example 162, 5-{9-Methanesulfonyl-6,7-dimethoxy-5-[(S)-oxan-4-yl(phenyl)methyl]-5H-pyrido[3,2-b]indol-3-yl}-4-(^2H3)methyl-1-methyl-1H-1,2,3-triazole] | > 8.30 |
| [2H]C([2H])([2H])c1nnn(C)c1-c1cnc2c3ccc(C(C)(C)O)cc3n(C(c3cc(C)on3)C3CCOCC3)c2c1 (centres unmarked) [Example 309, 2-{5-[(5-Methyl-1,2-oxazol-3-yl)(oxan-4-yl)methyl]-3-[4-(^2H3)methyl-1-methyl-1H-1,2,3-triazol-5-yl]-5H-pyrido[3,2-b]indol-7-yl}propan-2-ol] | > 7.60 |
| [2H]C([2H])([2H])c1nnn(C)c1-c1cnc2c3ccc(C(C)(C)O)cc3n(C(c3ccc(F)cc3F)C3CCOCC3)c2c1 (centres unmarked) [Example 280, 2-{5-[(2,4-Difluorophenyl)(oxan-4-yl)methyl]-3-[4-(^2H3)methyl-1-methyl-1H-1,2,3-triazol-5-yl]-5H-pyrido[3,2-b]indol-7-yl}propan-2-ol] | > 8.30 |
| Cc1nnn(C)c1-c1cnc2c3ccc(C(C)(C)O)cc3n(C(c3ccc(Cl)cc3)C3CCOCC3)c2c1 (single isomer, unassigned) [Example 398] | > 8.30 |
| Cc1noc(C)c1-c1cnc2c3ccc(C(C)(C)O)cc3n([C@@H](c3ccc(F)cc3)C3CCOC(C)(C)C3)c2c1 (some centres unmarked) [Example 18] | > 5.82 |
| [2H]C([2H])([2H])c1nnn(C)c1-c1cnc2c3c(F)cc(S(C)(=O)=O)cc3n([C@H](c3ccc(F)cc3)C3CCOCC3)c2c1 [Example 201, 5-{9-Fluoro-5-[(S)-(4-fluorophenyl)(oxan-4-yl)methyl]-7-methanesulfonyl-5H-pyrido[3,2-b]indol-3-yl}-4-(^2H3)methyl-1-methyl-1H-1,2,3-triazole] | > 8.30 |
| Cc1noc(C)c1-c1cnc2c3ccc(C(C)(C)O)cc3n([C@@H](CCC(F)(F)F)c3ccccn3)c2c1 [Example 23] | > 8.30 |
| Cc1nnn(C)c1-c1cnc2c3ccc(C(C)(C)O)cc3n(C(c3cccc(Cl)c3)C3CCOCC3)c2c1 (single isomer, unassigned) [Example 400] | > 8.30 |
| Cc1nnn(C)c1-c1cnc2c3ccc(C(C)(C)O)c(F)c3n(C(c3ccncc3F)C3CCOCC3)c2c1 (single isomer, unassigned) [Example 289] | > 8.30 |
| CCOc1nnn(C)c1-c1cnc2c3ccc(C(C)(C)O)cc3n([C@H](c3ccccc3)C3CCOCC3)c2c1 [Example 382, 2-[3-(4-Ethoxy-1-methyl-1H-1,2,3-triazol-5-yl)-5-[(S)-oxan-4-yl(phenyl)methyl]-5H-pyrido[3,2-b]indol-7-yl]propan-2-ol] | > 8.30 |
| Cc1noc(C)c1-c1cnc2c3ccc(C(C)(C)O)cc3n(C(c3ccccc3)C3CCC(F)(F)CC3)c2c1 (single isomer, unassigned) [Example 27, 2-{5-[(4,4-Difluorocyclohexyl)(phenyl)methyl]-3-(dimethyl-1,2-oxazol-4-yl)-5H-pyrido[3,2-b]indol-7-yl}propan-2-ol] | > 8.30 |
| Cc1nnn(C)c1-c1cnc2c3c(S(C)(=O)=O)cccc3n([C@H](c3ccc(F)cc3)C3CCOCC3)c2c1 [Example 257, 5-{5-[(S)-(4-Fluorophenyl)(oxan-4-yl)methyl]-9-methanesulfonyl-5H-pyrido[3,2-b]indol-3-yl}-1,4-dimethyl-1H-1,2,3-triazole] | > 8.30 |
| COCc1nnn(C)c1-c1cnc2c3ccc(C(C)(C)O)cc3n([C@H](c3ccccc3)C3CCOCC3)c2c1 [Example 89, 2-{3-[4-(Methoxymethyl)-1-methyl-1H-1,2,3-triazol-5-yl]-5-[(S)-oxan-4-yl(phenyl)methyl]-5H-pyrido[3,2-b]indol-7-yl}propan-2-ol] | > 7.60 |
| [2H]C([2H])([2H])c1nnn(C)c1-c1cnc2c3cc(F)c(C(C)(O)C4CC4)cc3n([C@H](c3ccccc3)C3CCOCC3)c2c1 (stereo partly drawn) [Example 445, 1-Cyclopropyl-1-{8-fluoro-3-[4-(^2H3)methyl-1-methyl-1H-1,2,3-triazol-5-yl]-5-[(S)-oxan-4-yl(phenyl)methyl]-5H-pyrido[3,2-b]indol-7-yl}ethan-1-ol] | > 8.30 |
| Cc1noc(C)c1-c1cnc2c3ccc(C(C)(C)O)cc3n(C(c3ccc(F)cc3F)C3CCOCC3)c2c1 (single isomer, unassigned) [Example 125, 2-{5-[(2,4-Difluorophenyl)(oxan-4-yl)methyl]-3-(dimethyl-1,2-oxazol-4-yl)-5H-pyrido[3,2-b]indol-7-yl}propan-2-ol] | > 8.30 |
| [2H]C([2H])([2H])c1nnn(C)c1-c1cnc2c3c(OC)cc(S(C)(=O)=O)cc3n([C@H](c3ccc(F)cc3)C3CCOCC3)c2c1 [Example 202, 5-{5-[(S)-(4-Fluorophenyl)(oxan-4-yl)methyl]-7-methanesulfonyl-9-methoxy-5H-pyrido[3,2-b]indol-3-yl}-4-(^2H3)methyl-1-methyl-1H-1,2,3-triazole] | > 8.30 |
| [2H]C([2H])([2H])c1nnn(C)c1-c1cnc2c3c(OCC(C)(F)F)ccc(S(C)(=O)=O)c3n([C@H](c3ccccc3)C3CCOCC3)c2c1 [Example 230, 5-[9-(2,2-Difluoropropoxy)-6-methanesulfonyl-5-[(S)-oxan-4-yl(phenyl)methyl]-5H-pyrido[3,2-b]indol-3-yl]-4-(^2H3)methyl-1-methyl-1H-1,2,3-triazole] | > 8.30 |
| [2H]C([2H])([2H])c1nnn(C)c1-c1cnc2c3c(NS(=O)(=O)CC(F)(F)F)ccc(S(C)(=O)=O)c3n([C@H](c3ccccc3)C3CCOCC3)c2c1 [Example 228, 2,2,2-Trifluoro-N-{6-methanesulfonyl-3-[4-(^2H3)methyl-1-methyl-1H-1,2,3-triazol-5-yl]-5-[(S)-oxan-4-yl(phenyl)methyl]-5H-pyrido[3,2-b]indol-9-yl}ethane-1-sulfonamide] | > 8.30 |
| Cc1nnn(C)c1-c1cnc2c3c(F)cc(C(C)(C)O)cc3n(C(c3c(F)cc(F)cc3F)C3CCOCC3)c2c1 (single isomer, unassigned) [Example 104, 2-[3-(Dimethyl-1H-1,2,3-triazol-5-yl)-9-fluoro-5-[oxan-4-yl(2,4,6-trifluorophenyl)methyl]-5H-pyrido[3,2-b]indol-7-yl]propan-2-ol] | > 8.30 |
| Cc1noc(C)c1-c1cnc2c3ccc(C(=O)O)cc3n(C(c3ccccc3)C3CCOCC3)c2c1 (centres unmarked) [Example 44, 3-(Dimethyl-1,2-oxazol-4-yl)-5-[oxan-4-yl(phenyl)methyl]-5H-pyrido[3,2-b]indole-7-carboxylic acid] | > 8.30 |
| Cc1nnn(C)c1-c1cnc2c3ccc(C(C)(C)O)cc3n(C(c3ncccn3)C3CCOCC3)c2c1 (single isomer, unassigned) [Example 292] | > 8.30 |
| [2H]C([2H])([2H])c1nnn(C)c1-c1cnc2c3cc(F)c(C(C)(C)O)cc3n([C@H](c3ccc(F)cc3)C3CCOCC3)c2c1 [Example 277, 2-{8-Fluoro-5-[(S)-(4-fluorophenyl)(oxan-4-yl)methyl]-3-[4-(^2H3)methyl-1-methyl-1H-1,2,3-triazol-5-yl]-5H-pyrido[3,2-b]indol-7-yl}propan-2-ol] | > 8.30 |
| COc1ccc(C(C2CCOCC2)n2c3cc(C(C)(C)O)ccc3c3ncc(-c4c(C)nnn4C)cc32)c(F)c1 (single isomer, unassigned) [Example 120, 2-[3-(Dimethyl-1H-1,2,3-triazol-5-yl)-5-[(2-fluoro-4-methoxyphenyl)(oxan-4-yl)methyl]-5H-pyrido[3,2-b]indol-7-yl]propan-2-ol] | > 8.30 |
| [2H]C([2H])([2H])c1nnn(C)c1-c1cnc2c3ccc(S(C)(=O)=O)cc3n(C(c3cc(C)on3)C3CCOCC3)c2c1 (centres unmarked) [Example 330, 5-{7-Methanesulfonyl-5-[(5-methyl-1,2-oxazol-3-yl)(oxan-4-yl)methyl]-5H-pyrido[3,2-b]indol-3-yl}-4-(^2H3)methyl-1-methyl-1H-1,2,3-triazole] | > 7.60 |
| Cc1oncc1-c1cnc2c3ccc(C(C)(C)O)cc3n(C(c3ccc(F)cc3)C3CCOCC3)c2c1 (single isomer, unassigned) [Example 41, 2-{5-[(4-Fluorophenyl)(oxan-4-yl)methyl]-3-(5-methyl-1,2-oxazol-4-yl)-5H-pyrido[3,2-b]indol-7-yl}propan-2-ol] | > 5.82 |
| [2H]C([2H])([2H])c1nnn(C)c1-c1cnc2c3cc(F)c(C(C)(O)C4CC4)cc3n(C(c3cc(C)on3)C3CCOCC3)c2c1 (centres unmarked) [Example 329] | > 7.60 |
| Cc1nnn(C)c1-c1cnc2c3ccc(C(C)(C)NS(C)(=O)=O)cc3n([C@H](c3ccccc3)C3CCOCC3)c2c1 [Example 411, N-{2-[3-(Dimethyl-1H-1,2,3-triazol-5-yl)-5-[(S)-oxan-4-yl(phenyl)methyl]-5H-pyrido[3,2-b]indol-7-yl]propan-2-yl}methanesulfonamide] | > 8.30 |
| Cc1nnn(C)c1-c1cnc2c3cc(F)c(C(C)(O)C4CC4)cc3n([C@H](c3ccccc3F)C3CCOCC3)c2c1 (single isomer, unassigned) [Example 447] | > 8.30 |
| Cc1noc(C)c1-c1cnc2c3ccc(C(C)(C)O)cc3n([C@H](c3ccc(F)cc3)C3CCOC(C)(C)C3)c2c1 (some centres unmarked) [Example 17] | > 7.60 |
| Cc1nnn(C)c1-c1cnc2c3ccc(C(=O)N4CC(F)C4)cc3n([C@H](c3ccccc3)C3CCOCC3)c2c1 [Example 413, 5-[7-(3-Fluoroazetidine-1-carbonyl)-5-[(S)-oxan-4-yl(phenyl)methyl]-5H-pyrido[3,2-b]indol-3-yl]-1,4-dimethyl-1H-1,2,3-triazole] | > 8.30 |
